SMILES strings stand for the structures.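 Step 1: Grow cells in 96-well plates. Step 2: Expose to compound for 48 hours at 5 concentrations. Step 3: Interpolate endpoints linearly; if unreached, use highest concentration. GI50 is the concentration that inhibits growth by half. The concentration for full growth arrest is given as TGI.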 A value given as a limit tells only on which side of the number the result lay.

Some test systems named below: NCI-H226 lung; NCI-H460 lung; TK-10 renal; SNB-19 CNS; A498 renal; RXF 393 renal; UO-31 renal; OVCAR-3 ovarian; M14 melanoma; A549 NSCLC.
What all share (experiment): inhibition of tumour cell growth, NCI panel, 48 h

Regarding `NCCCNCCSSCCCCS(=O)O`, the TGI was greater than 100 µM with NCI-H226 lung; greater than 100 µM in the test on NCI-H460 lung; greater than 100 µM with TK-10 renal; greater than 100 µM in the test on SNB-19 CNS; greater than 100 µM in the test with A498 renal; 79.8 µM with RXF 393 renal. Also, the TGI in the test with UO-31 renal is greater than 100 µM; in the test on OVCAR-3 ovarian, 44.8 µM; with M14 melanoma it was 44.2 µM; with A549 NSCLC, greater than 100 µM.
Regarding `COc1ccc(OC(=O)O[C@H]2[C@H](O[C@H]3[C@@H](O)COC(O[C@H]4C[C@H]5[C@@H]6CC=C7C[C@@H](O)CC[C@]7(C)[C@H]6CC[C@]5(C)[C@H]4[C@H](C)C(=O)CCC(C)C)[C@@H]3OC(C)=O)OC[C@@H](O)[C@@H]2O)cc1` (some centres not stated), the GI50 in the test with NCI-H226 lung is 0.58 µM; in the test with NCI-H460 lung, 0.0524 µM; in the test on TK-10 renal, 2.24 µM; with SNB-19 CNS, 0.0857 µM; with A498 renal it was 0.0116 µM; with RXF 393 renal, less than 0.01 µM. In addition, the GI50 in the test on UO-31 renal is 0.0874 µM; with OVCAR-3 ovarian, 10.7 µM; in the test on M14 melanoma, 0.04 µM; in the test on A549 NSCLC, 0.145 µM. Also, the TGI in the test on NCI-H226 lung came out at 18.7 µM; in the test with NCI-H460 lung, 3.33 µM; in the test with TK-10 renal, 21.1 µM; with SNB-19 CNS, 6.56 µM; with A498 renal, 0.0559 µM; in the test on UO-31 renal, 0.995 µM. Also, the TGI in the test with OVCAR-3 ovarian came to 24.5 µM; with M14 melanoma, 0.262 µM; with A549 NSCLC it was 21.9 µM.
Regarding `CC[C@H](C)[C@H](NC(=O)[C@H]1CCCCN1C)C(=O)N(C)[C@H](CCc1nc(C(=O)N[C@@H](Cc2ccccc2)C[C@H](C)C(=O)OC)cs1)C(C)C`, the GI50 with NCI-H226 lung was 1.07 µM; with NCI-H460 lung, 0.395 µM; in the test with TK-10 renal, 7.35 µM; with SNB-19 CNS, 0.151 µM; in the test on A498 renal, 0.14 µM; in the test with RXF 393 renal, 0.308 µM. Further, the GI50 in the test with UO-31 renal was 1.78 µM; with OVCAR-3 ovarian, 0.0867 µM; with M14 melanoma, 0.215 µM; in the test on A549 NSCLC, 1.1 µM. The TGI is greater than 12.4 µM in the test with NCI-H226 lung; greater than 10.3 µM in the test with NCI-H460 lung; greater than 25 µM in the test on TK-10 renal; greater than 25 µM in the test with SNB-19 CNS; 2.75 µM in the test with A498 renal; greater than 25 µM with RXF 393 renal. The TGI was 13.7 µM in the test on UO-31 renal and greater than 25 µM in the test on A549 NSCLC.
As for `CCCCCCCCCCCCCCCCOP(=O)(O)Oc1ccc(/C=C\c2ccc(OP(=O)(O)OCCCCCCCCCCCCCCCC)cc2)cc1`, the TGI in the test with NCI-H226 lung is greater than 100 µM; in the test with NCI-H460 lung, greater than 100 µM; in the test on TK-10 renal, 72.4 µM; with SNB-19 CNS, greater than 100 µM; in the test on A498 renal it was greater than 100 µM; in the test on RXF 393 renal, 9.1 µM. In addition, the TGI in the test on UO-31 renal, in the test with OVCAR-3 ovarian, in the test with M14 melanoma and with A549 NSCLC was greater than 100 µM in each case.
As for `COc1cc(C2c3cc4c(cc3[C@H](OCCN(C)C)[C@@H]3COC(=O)C23)OCO4)cc(OC)c1O` (some centres not stated), the TGI came out at 0.301 µM with NCI-H226 lung; 0.766 µM in the test on NCI-H460 lung; 17.9 µM in the test with TK-10 renal; 5.98 µM in the test with SNB-19 CNS; 1.22 µM in the test with A498 renal; 1.55 µM with RXF 393 renal. The TGI is 1.71 µM in the test with UO-31 renal, 4.08 µM with OVCAR-3 ovarian, 2.58 µM in the test on M14 melanoma and 1.34 µM with A549 NSCLC.
In the case of `CCOC(=O)[C@H]1Nc2ccc(C)cc2C2c3ccccc3CC21` (some centres not stated), the TGI in the test with NCI-H226 lung, in the test with NCI-H460 lung, in the test on TK-10 renal, in the test on SNB-19 CNS, in the test on A498 renal and in the test with RXF 393 renal was greater than 100 µM throughout. Further, the TGI in the test with UO-31 renal, in the test with OVCAR-3 ovarian, with M14 melanoma and in the test on A549 NSCLC was greater than 100 µM in each case.

The record behind these values is PubChem BioAssay (NCI).
